In patent publication US9562044B2, “2-acylaminothiazole derivative or salt thereof” (ASTELLAS PHARMA INC., priority 2013, dated 2017):
Where a name gives a salt, the structure may show the parent alone.

What was measured:
human c-Mpl receptor = target: T1, human c-Mpl receptor (Homo sapiens, UniProt P40238); assay: Human c-Mpl-introduced Ba/F3 cell proliferative activity; type: cell-based; details: concentration showing 30% proliferation; 100% = positive control at 1 μM
T1 construct: expressed in transfected cells
T1 sequence (P40238 26-635): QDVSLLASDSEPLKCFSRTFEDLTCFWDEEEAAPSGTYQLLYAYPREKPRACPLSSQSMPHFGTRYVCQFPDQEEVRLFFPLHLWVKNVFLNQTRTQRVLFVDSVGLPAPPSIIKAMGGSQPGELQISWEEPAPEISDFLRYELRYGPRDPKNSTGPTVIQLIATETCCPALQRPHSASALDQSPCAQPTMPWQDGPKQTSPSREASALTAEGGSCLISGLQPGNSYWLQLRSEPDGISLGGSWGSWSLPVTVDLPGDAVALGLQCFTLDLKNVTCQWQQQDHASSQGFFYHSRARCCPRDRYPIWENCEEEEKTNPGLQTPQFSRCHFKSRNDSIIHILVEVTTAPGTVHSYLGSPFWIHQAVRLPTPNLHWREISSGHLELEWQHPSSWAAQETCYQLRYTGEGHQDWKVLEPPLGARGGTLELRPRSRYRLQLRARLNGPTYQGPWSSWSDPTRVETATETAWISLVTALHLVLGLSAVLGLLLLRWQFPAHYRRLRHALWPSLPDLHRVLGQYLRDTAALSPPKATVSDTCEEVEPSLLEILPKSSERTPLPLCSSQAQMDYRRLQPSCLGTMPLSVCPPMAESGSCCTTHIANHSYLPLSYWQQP
Protocol: Evaluation of Human c-Mpl-Introduced Ba/F3 Cell Proliferative Activity
The human c-Mpl-introduced Ba/F3 cell proliferative activity was measured by the following method.
As a positive control, 1-(5-{[4-(4-chloro-2-thienyl)-5-{[(2R)-2-methylpyrrolidin-1-yl]methyl}-1,3-thiazol-2-yl]carbamoyl}-3-fluoropyridin-2-yl)piperidine-4-carboxylic acid hydrochloride, which is disclosed as Example 315 in Patent Document 1 and represented by the formula A1, was used. It is known that the compound has a good human c-Mpl-introduced Ba/F3 cell proliferative activity as disclosed in Table 1 of Patent Document 1.
a) Construction of Human c-Mpl Receptor Expression Vector
A human c-mpl receptor gene (GenBank Accession No. M90102.1) was introduced into an expression vector pEF-BOS (Nucleic Acids Res. 18, 5322, 1990).
b) Construction of Cell Stably Expressing Human c-Mpl Receptor
A human c-Mpl receptor expression vector was introduced into a Ba/F3 cell (RIKEN BRC: RCB0805). For the introduction, an electroporation method was used. pEF-BOS-c-mpl (10 μg), pSV2bsr (1 μg, Kaken Pharmaceutical Co., Ltd.) and 1×10^7 Ba/F3 cells were put into a cuvette having a gap width of 0.4 cm, and electroporated under the conditions of 1.5 kV (25 μF) by a Gene Pulser (registered trademark) (BioRad). The cells were cultured in an RPMI-1640 culture medium containing 0.5% WEHI conditioned media (BD Biosciences) and 10% fetal bovine serum for 3 days, and then cultured in an RPMI-1640 culture medium, to which 10 μg/mL blasticidin had been further added, for 30 days to acquire a drug-resistant clone.
c) Measurement of Cell Proliferative Activity
The cells obtained in b) above was cultured in an RPMI-1640 culture medium containing 0.5% WEHI conditioned media, 10% fetal bovine serum, and used. On the day before the experiment, test substances (final concentration of 100 nM to 10 μM) which had been dissolved in a culture medium for assay (RPMI-1640 culture medium containing 10% fetal bovine serum) were added to a 384-well plate (Lot No. 781185, Greiner Bio-One). The cells in the culture medium that had been replaced with a culture medium for assay were dispensed into a 384-well plate, to which the test substances had been added in advance, to 1×10^4 cells/well, and cultured at 37° C. and 5% CO2 overnight. On the experiment day, a solution of a Cell Counting Kit (Dojindo Laboratories) was added to each well of the 384-well plate and cultured at 37° C. and 5% CO2 for about 5 hours. Thereafter, the absorbance (absorption wavelength of 450 nm) of each well was measured using Safire^2™ (TECAN) and used as the index of the number of cells. Further, as a negative control, a well in which the test substance had been not added was prepared.
The absorbance of the well without the test substance was set to 0%, and the absorbance in the case where the positive control was added at a final concentration of 1 μM was set to 100%. From the absorbance in the case where the test substance had been added, a cell proliferation rate (%) was calculated. From the obtained results, the test substance concentration showing 30% proliferation was calculated as an EC30 value by a logistic regression method.

isolated rat bladder = assay: Transmural electrical field stimulation-induced contraction of isolated rat bladder; details: AUC of contractile response, value before treatment = 100%, SD female rat bladder strip, read-out: Enhancement rate of isolated bladder contraction (% of pre)
Protocol: Effects on Transmural Electrical Field Stimulation-Induced Contraction of Isolated Rat Bladder
As an effect on the nerve stimulation-dependent bladder contraction in vitro, the effect of the Example compound of the present invention in the transmural electrical field stimulation-induced contraction of isolated rat bladder was measured by the following method. That is, from the bladder isolated from a Spraque-Dawley (SD) female rat (Japan SLC, Inc.), a longitudinal bladder strip having a width of about 2 mm and a length of about 10 mm was prepared. The prepared bladder strip was suspended in an organ bath filled with 10 mL of a Krebs-Henseleit solution. The Krebs-Henseleit solution was bubbled with 95% O2 and 5% CO2, and kept at 37° C. After stabilization at an initial tension of 1 g, contraction was induced twice with 60 mM KCl. The strip was washed with the Krebs-Henseleit solution and stabilized, and then contraction was induced with transmural electrical field stimulation at 20 V (stimulation frequency of 8 Hz, pulse width of 0.3 msec, and stimulation time of 10 seconds) by an electrical stimulation device (Nihon Kohden Corporation). At an interval of 2 minutes, transmural electrical field stimulation was repeated and the voltage was adjusted to make the contractile amplitude about 50% of the contractile response by 20 V. After stabilization of the contraction by the transmural electrical field stimulation, 10 μL of the test substance (final concentrations of 3 μM, 10 μM, and 30 μM), which had been dissolved in 100% dimethylsulfoxide in advance was added. The test substance was cumulatively administered at the next concentration after the contractile response at a lower concentration had been stabilized. The responses were put into a personal computer through PowerLab (registered trademark) (AD Instruments), and analyzed with LabChart (registered trademark) (AD Instruments). The area under the response of each contractile response (area under curve, AUC) was calculated and the value before the treatment with the test substance was set to 100%. Based on this, the enhancement rate of the isolated bladder contraction (% of pre) after the treatment with the test substance was calculated.
The enhancement rates of the isolated bladder contraction due to several 10 μM Example compounds which are the compounds of the formula (I) are shown in Table 2.

SMILES	Test Example 2 EC30 (human c-Mpl receptor) [µM]	activity at 10 µM (isolated rat bladder) [%]
COc1cc(-c2nc(NC(=O)c3cnc(N4CCC(C(=O)O)CC4)cn3)sc2CN2CCCC[C@H]2C)cc(C(F)(F)F)c1 [Example 2, 1-{5-[(4-[3-methoxy-5-(trifluoromethyl)phenyl]-5-{[(2R)-2-methylpiperidin-1-yl]methyl}-1,3-thiazol-2-yl)carbamoyl]pyrazin-2-yl}piperidine-4-carboxylic acid dihydrochloride]	>10	
CCCC1CCCN1Cc1sc(NC(=O)c2cnc(N3CCC(C(=O)O)CC3)cn2)nc1-c1ccc(OC(C)C)c(C(F)(F)F)c1 (stereo not drawn) [Example 19]	>10	124
Cc1cc(OC(F)(F)F)cc(-c2nc(NC(=O)c3cnc(N4CCC(F)(C(=O)O)CC4)cn3)sc2CN2CCC[C@H]2C)c1 [Example 3, 4-fluoro-1-{5-[(5-{[(2R)-2-methylpyrrolidin-1-yl]methyl}-4-[3-methyl-5-(trifluoromethoxy)phenyl]-1,3-thiazol-2-yl)carbamoyl]pyrazin-2-yl}piperidine-4-carboxylic acid dihydrochloride]	4.8	
CC(C)Oc1ccc(-c2nc(NC(=O)c3cnc(N4CCC(C(=O)O)CC4)cn3)sc2CN2CCCC(C)(C)C2)cc1C(F)(F)F [Example 20]	>10	
COCCN(Cc1sc(NC(=O)c2cnc(N3CCC(C(=O)O)CC3)cn2)nc1-c1cc(C(F)(F)F)cc(C(F)(F)F)c1)CC(C)C [Example 38]	>10	
CCCC1CCCN1Cc1sc(NC(=O)c2cnc(N3CCC(C(=O)O)CC3)cn2)nc1-c1ccc(OC)c(C(F)(F)F)c1 (stereo not drawn) [Example 158]	>10	125
CC[C@@H]1CCCN1Cc1sc(NC(=O)c2cnc(N3CCC(F)(C(=O)O)CC3)cn2)nc1-c1ccc(OC)c(C(F)(F)F)c1 [Example 125]	>10	
CCCOc1ccc(-c2nc(NC(=O)c3cnc(N4CCC(C(=O)O)CC4)cn3)sc2CN2CCCC(C)(C)C2)cc1C(F)(F)F [Example 27]	>10	
COCCN(Cc1sc(NC(=O)c2cnc(N3CCC(C(=O)O)CC3)cn2)nc1-c1cc(Cl)cs1)CC(C)C [Example 152]	0.58	
C[C@@H]1CCCN1Cc1sc(NC(=O)c2cnc(N3CCC(C(=O)O)CC3)cn2)nc1-c1cc(F)cc(C(F)(F)F)c1 [Example 150]	>10	
C[C@@H]1CCCN1Cc1sc(NC(=O)c2cnc(N3CCC(F)(C(=O)O)CC3)cn2)nc1-c1ccc(F)c(C(F)(F)F)c1 [Example 133]	1.1	
C[C@@H]1CCCCN1Cc1sc(NC(=O)c2cnc(N3CCC(C(=O)O)CC3)cn2)nc1-c1cc(Cl)cs1 [Example 142]	0.38	
C[C@@H]1CCCN1Cc1sc(NC(=O)c2cnc(N3CCC(F)(C(=O)O)CC3)cn2)nc1-c1cc(F)cc(C(F)(F)F)c1 [Example 128]	8.4	
CCCOc1ccc(-c2nc(NC(=O)c3cnc(N4CCC(C(=O)O)CC4)cn3)sc2CN2CCC[C@H]2CC)cc1C(F)(F)F [Example 1, 1-{5-[(5-{[(2R)-2-ethylpyrrolidin-1-yl]methyl}-4-[4-propoxy-3-(trifluoromethyl)phenyl]-1,3-thiazol-2-yl)carbamoyl]pyrazin-2-yl}piperidine-4-carboxylic acid dihydrochloride]	>10	132
CC[C@@H]1CCCN1Cc1sc(NC(=O)c2cnc(N3CCC(C(=O)O)CC3)cn2)nc1-c1cc(Cl)cs1 [Example 196]		125
CCCN(CCOC)Cc1sc(NC(=O)c2cnc(N3CCC(C(=O)O)CC3)cn2)nc1-c1cc(Cl)cs1 [Example 146]	0.82	
CCOC[C@@H]1CCCN1Cc1sc(NC(=O)c2cnc(N3CCC(C(=O)O)CC3)cn2)nc1-c1cc(F)c(OC)c(C(F)(F)F)c1 [Example 84]	>10	140
CC[C@@H]1CCCN1Cc1sc(NC(=O)c2cnc(N3CCC(C(=O)O)CC3)cn2)nc1-c1ccc(OCCCOC)c(C(F)(F)F)c1 [Example 21]	>10	
CCOc1ccc(-c2nc(NC(=O)c3cnc(N4CCC(C(=O)O)CC4)cn3)sc2CN2CCC[C@H]2CC)cc1C(F)(F)F [Example 203]	>10	
CCOC[C@@H]1CCCN1Cc1sc(NC(=O)c2cnc(N3CCC(C(=O)O)CC3)cn2)nc1-c1cc(F)c(OC)c(Cl)c1 [Example 69]	>10	152
C[C@@H]1CCCN1Cc1sc(NC(=O)c2cnc(N3CCC(O)(C(=O)O)CC3)cn2)nc1-c1cc(Cl)cs1 [Example 129]	0.77	
COc1ccc(-c2nc(NC(=O)c3cnc(N4CCC(C(=O)O)CC4)cn3)sc2CN2CCC[C@H]2C(F)(F)F)cc1C(F)(F)F [Example 179]	>10	120
COc1ccc(-c2nc(NC(=O)c3cnc(N4CCC(C(=O)O)CC4)cn3)sc2CN2CCCC2C(C)C)cc1C(F)(F)F (stereo not drawn) [Example 188]	>10	128
O=C(Nc1nc(-c2ccc(OCCCF)c(C(F)(F)F)c2)c(CN2CCC[C@H]2C(F)(F)F)s1)c1cnc(N2CCC(C(=O)O)CC2)cn1 [Example 204]	>10	
C[C@@H]1CCCN1Cc1sc(NC(=O)c2cnc(N3CCC(C(=O)O)CC3)cn2)nc1-c1ccc(N(C)C)c(C(F)(F)F)c1 [Example 11]	>10	
CCOc1ccc(-c2nc(NC(=O)c3cnc(N4CCC(C(=O)O)CC4)cn3)sc2CN2CCC[C@H]2C)cc1C(F)(F)F [Example 200]	>10	
